Literature values as cited in US20230172904A1, “COMBINATION OF AN ANTIALLERGIC AGENT WITH MUSCARINIC ANTAGONIST AND/OR DOPAMINERGIC AGONIST FOR USE IN PREVENTING/STOPPING OF AXIAL MYOPIA IN HUMAN” (priority 2016, published 2023).

Tests used:
axial myopia [1] = tested on: axial myopia
axial myopia [2] = details: one drop of 1% Atropine collyrium at bedtime, chinese children, placebo controlled

CN1[C@@H]2CC[C@H]1C[C@@H](OC(=O)C(CO)c1ccccc1)C2 (stereo partly drawn) [Atropine]
effect on myopia at reduced doses (axial myopia [1]; dose reduced to 0.1%, 0.05% and 0.01%, children): dose dependent effect of atropine that is still acceptable at the lower concentration
subjects who developed ocular redness and itching (axial myopia [1]; pediatric population, allergic response of the conjunctiva): around 5%
subjects in whom the development of axial myopia was halted (stopping the elongation of the bulb) (axial myopia [2]): 90%
